In patent publication US20250186405A1, “Compound For Use In Treating Narcolepsy” (Alkermes, Inc., priority 2023, published 2025):

Tested on: subjects with narcolepsy type-2 (NT2)
Assay: Part 5 POC NT2: treatment-emergent adverse events, single doses, crossover
[1] = Total (any Compound A dose), N = 9

Protocol: Part 5 consisted of a 4-way, 4-period crossover study design in approximately 8 subjects (2 subjects per sequence; minimum of 4 subjects with 1 subject per sequence). Subjects were randomized 1:1:1:1 to 1 of 4 sequences with 4 treatment periods (3 single doses of Compound A and 1 dose of matching placebo), with up to 48 hours of washout between treatments. Treatments were administered under fasted state.
Subjects were randomized to 1 of 4 sequences. […] In each period, subjects were administered a single dose of study drug (either Compound A or placebo) as per the randomization schedule with approximately 240 mL of noncarbonated water following overnight fasting. No food was given for at least 3 hours after dose administration (i.e., fast can be broken after the 3-hour PK time point is collected). Water was allowed ad libitum except for 1 hour before and 1 hour after study drug administration. Safety assessments including AEs, safety ECGs, vital signs, and clinical laboratory tests were conducted, and plasma PK samples were collected. Furthermore, BP and HR were monitored once every hour for 12 hours on the dosing days.
Adverse events (AEs) and serious adverse events (SAEs) were monitored continuously until the completion of the study.
Nine subjects with NT2 were dosed in Part 5 (POC in NT2) in a randomized 4-sequence 4-period cross-over design. Each dose of Compound A or matching placebo was separated by 2 days. A 14-day washout period preceded the treatment period and included discontinuation of narcolepsy medications. All 9 subjects underwent the washout period and received at least one dose of Compound A. All subjects completed all 4-way randomized crossover periods.

CS(=O)(=O)N[C@H]1CCCN2C(=O)COc3ccccc3C3CCC(CC3)OCC12 (stereo partly drawn) [Compound A, N-[(4S,4aR,7α,10α)-1,2,3,4,4a,5,7,8,9,10,16,17-dodecahydro-17-oxo-7,10-ethanopyrido[1,2-d][1,7,4]benzodioxaazacyclotridecin-4-yl]methanesulfonamide]
AE Leading to Study Drug Discontinuation (25 mg single dose, N = 9): 0 n (%)
Any SAEs (25 mg single dose, N = 9): 0 n (%)
Any TEAE (25 mg single dose, N = 9): 7 (77.8) n (%)
Death (25 mg single dose, N = 9): 0 n (%)
Drug Related TEAE by Preferred Term: Altered state of consciousness (25 mg single dose, N = 9): 0 n (%)
Drug Related TEAE by Preferred Term: Dizziness (25 mg single dose, N = 9): 2 (22.2) n (%)
Drug Related TEAE by Preferred Term: Dizziness postural (25 mg single dose, N = 9): 1 (11.1) n (%)
Drug Related TEAE by Preferred Term: Feeling jittery (25 mg single dose, N = 9): 1 (11.1) n (%)
Drug Related TEAE by Preferred Term: Headache (25 mg single dose, N = 9): 1 (11.1) n (%)
Drug Related TEAE by Preferred Term: Initial insomnia (25 mg single dose, N = 9): 0 n (%)
Drug Related TEAE by Preferred Term: Insomnia (25 mg single dose, N = 9): 2 (22.2) n (%)
Drug Related TEAE by Preferred Term: Photophobia (25 mg single dose, N = 9): 1 (11.1) n (%)
Drug Related TEAE by Preferred Term: Pollakiuria (25 mg single dose, N = 9): 3 (33.3) n (%)
Drug Related TEAE by Preferred Term: Tachycardia (25 mg single dose, N = 9): 0 n (%)
Drug Related TEAE by Preferred Term: Urinary incontinence (25 mg single dose, N = 9): 1 (11.1) n (%)
Subjects with at least one TEAE (25 mg single dose, N = 9): 7 (77.8) n (%)
Subjects with at least one treatment-related TEAE (25 mg single dose, N = 9): 6 (66.7) n (%)
TEAE by Highest Relationship: Not Related (25 mg single dose, N = 9): 1 (11.1) n (%)
TEAE by Highest Relationship: Related (25 mg single dose, N = 9): 6 (66.7) n (%)
TEAE by Highest Severity: Mild (25 mg single dose, N = 9): 6 (66.7) n (%)
TEAE by Highest Severity: Moderate (25 mg single dose, N = 9): 1 (11.1) n (%)
TEAE by Highest Severity: Severe (25 mg single dose, N = 9): 0 n (%)
TEAE by Preferred Term: Altered state of consciousness (25 mg single dose, N = 9): 0 n (%)
TEAE by Preferred Term: Constipation (25 mg single dose, N = 9): 0 n (%)
TEAE by Preferred Term: Contusion (25 mg single dose, N = 9): 1 (11.1) n (%)
TEAE by Preferred Term: Dizziness (25 mg single dose, N = 9): 2 (22.2) n (%)
TEAE by Preferred Term: Dizziness postural (25 mg single dose, N = 9): 1 (11.1) n (%)
TEAE by Preferred Term: Dry skin (25 mg single dose, N = 9): 0 n (%)
TEAE by Preferred Term: Feeling jittery (25 mg single dose, N = 9): 1 (11.1) n (%)
TEAE by Preferred Term: Headache (25 mg single dose, N = 9): 1 (11.1) n (%)
TEAE by Preferred Term: Initial insomnia (25 mg single dose, N = 9): 0 n (%)
TEAE by Preferred Term: Insomnia (25 mg single dose, N = 9): 2 (22.2) n (%)
TEAE by Preferred Term: Nasal dryness (25 mg single dose, N = 9): 1 (11.1) n (%)
TEAE by Preferred Term: Nausea (25 mg single dose, N = 9): 0 n (%)
TEAE by Preferred Term: Photophobia (25 mg single dose, N = 9): 1 (11.1) n (%)
TEAE by Preferred Term: Pollakiuria (25 mg single dose, N = 9): 3 (33.3) n (%)
TEAE by Preferred Term: Rash (25 mg single dose, N = 9): 0 n (%)
TEAE by Preferred Term: Skin lesion (25 mg single dose, N = 9): 0 n (%)
TEAE by Preferred Term: Tachycardia (25 mg single dose, N = 9): 0 n (%)
TEAE by Preferred Term: Urinary incontinence (25 mg single dose, N = 9): 1 (11.1) n (%)
Tolerability (NT2, 5, 12 and 25 mg): well tolerated
Subjects with at least one TEAE (NT2, N = 9, all periods): 77.8%
AE Leading to Study Drug Discontinuation [1]: 0 n (%)
Any SAEs [1]: 0 n (%)
Any TEAE [1]: 7 (77.8) n (%)
Death [1]: 0 n (%)
Drug Related TEAE by Preferred Term: Altered state of consciousness [1]: 0 n (%)
Drug Related TEAE by Preferred Term: Dizziness [1]: 2 (22.2) n (%)
Drug Related TEAE by Preferred Term: Dizziness postural [1]: 1 (11.1) n (%)
Drug Related TEAE by Preferred Term: Feeling jittery [1]: 1 (11.1) n (%)
Drug Related TEAE by Preferred Term: Headache [1]: 1 (11.1) n (%)
Drug Related TEAE by Preferred Term: Initial insomnia [1]: 1 (11.1) n (%)
Drug Related TEAE by Preferred Term: Insomnia [1]: 2 (22.2) n (%)
Drug Related TEAE by Preferred Term: Photophobia [1]: 1 (11.1) n (%)
Drug Related TEAE by Preferred Term: Pollakiuria [1]: 3 (33.3) n (%)
Drug Related TEAE by Preferred Term: Tachycardia [1]: 0 n (%)
Drug Related TEAE by Preferred Term: Urinary incontinence [1]: 1 (11.1) n (%)
Subjects with at least one TEAE [1]: 7 (77.8) n (%)
Subjects with at least one treatment-related TEAE [1]: 6 (66.7) n (%)
TEAE by Highest Relationship: Not Related [1]: 1 (11.1) n (%)
TEAE by Highest Relationship: Related [1]: 6 (66.7) n (%)
TEAE by Highest Severity: Mild [1]: 6 (66.7) n (%)
TEAE by Highest Severity: Moderate [1]: 1 (11.1) n (%)
TEAE by Highest Severity: Severe [1]: 0 n (%)
TEAE by Preferred Term: Altered state of consciousness [1]: 0 n (%)
TEAE by Preferred Term: Constipation [1]: 1 (11.1) n (%)
TEAE by Preferred Term: Contusion [1]: 1 (11.1) n (%)
TEAE by Preferred Term: Dizziness [1]: 2 (22.2) n (%)
TEAE by Preferred Term: Dizziness postural [1]: 1 (11.1) n (%)
TEAE by Preferred Term: Dry skin [1]: 1 (11.1) n (%)
TEAE by Preferred Term: Feeling jittery [1]: 1 (11.1) n (%)
TEAE by Preferred Term: Headache [1]: 1 (11.1) n (%)
TEAE by Preferred Term: Initial insomnia [1]: 1 (11.1) n (%)
TEAE by Preferred Term: Insomnia [1]: 2 (22.2) n (%)
TEAE by Preferred Term: Nasal dryness [1]: 1 (11.1) n (%)
TEAE by Preferred Term: Nausea [1]: 1 (11.1) n (%)
TEAE by Preferred Term: Photophobia [1]: 1 (11.1) n (%)
TEAE by Preferred Term: Pollakiuria [1]: 3 (33.3) n (%)
TEAE by Preferred Term: Rash [1]: 1 (11.1) n (%)
TEAE by Preferred Term: Skin lesion [1]: 1 (11.1) n (%)
TEAE by Preferred Term: Tachycardia [1]: 0 n (%)
TEAE by Preferred Term: Urinary incontinence [1]: 1 (11.1) n (%)
